Source: patent US20210275556A1, “Cannabidiol Combination Compositions” (Companion Sciences. LLC, priority 2018, published 2021)

Experiments:
in vivo = details: male, Sprague Dawley, rat
Procedure: (§1) Three different water-soluble CBD oral formulae were tested, F #01 (20%), L #02 (2.5% CBD) and I #03 (20% CBD), and administered at 15 mg/Kg rat.
(§2) The three formulae were tested in combination with 500 mg/Kg Glucosamine (Gln).
(§3) The total administered volume was 10 mL/Kg (CBD+Gln).
(§4) The trial was performed on Sprague Dawley male rat (n=3/group).
(§5) A single dose containing CBD and Gln was provided PO at t=0.
CBD and Gln plasma concentrations were examined 1, 4 and 8 hours following a single administration.

[1] = Gln and CBD concentration in the synovial fluid 8 hours after oral administration; details: 8 h after oral administration of 15 mg/Kg CBD + 500 mg/Kg Gln
Procedure: as §1, §2, §3, §4, §5
Gln concentration in the synovial fluid was examined 8 hours after oral administration.

## N[C@H]1C(O)O[C@H](CO)[C@@H](O)[C@@H]1O (some centres unmarked) [Gln, Glucosamine]
In vivo
  decrease of Gln plasma concentration from the 4 h point: 94.0%
In vivo; po, 500 mg/kg
  concentration at 1 h: 2.04 ng/mL
  concentration at 4 h: 134 ng/mL
  concentration at 8 h: 8 ng/mL

## C=C(C)[C@@H]1CCC(C)=C[C@H]1c1c(O)cc(CCCCC)cc1O [CBD, Cannabidiol]
[1]
  CBD in the synovial fluid: No CBD was detected
